The assay addresses T1, FGFR1-GST (Homo sapiens, UniProt P11362).
T1 construct: GST; made in house
The assay is described as follows: FGFR-1 TR-FRET biochemical assay. As to the method:
FGFR-1 TR-FRET Biochemical Assay
The FGFR-1 Assay was performed on half well 96-well opaque plates (Costar 3915) in a LANCE format. LANCE is a homogenous time resolved fluormetry based application available through Perkin Elmer. For this assay, 50 uL reactions were set up using: 0.6 uM ATP (Sigma), 25 nM poly GT-biotin (CIS BIO International), 2 nM Eu-labelled phospho-Tyr Ab (PY20 PerkinElmer), 10 nM Streptavidin-APC (Perkin Elmer), 5 nM FGFR1-GST (generated by DRT, Bayer Healthcare), 1% DMSO, 50 mM HEPES pH 7.5, 10 mM MgCl2, 0.1 mM EDTA, 0.015% Brij, 0.1 mg/ml BSA, 0.1% B-mercaptoethanol. All reactions were initiated with the addition of enzyme and were left to incubate for one hour at room temperature. Time-resolved fluorescence was then read on a Perkin Elmer VictorV Multilabel counter. The reading protocol uses an excitation wavelength at 340 nm and emission reads at both 615 and 665 nm. Signal was calculated as a ratio: (Fluorescence at 665 nm/Fluorescence at […])*10000 for each well. The background control used for this assay is the signal produced with all assay components excluding ATP. For IC50 generation, compounds were added prior to the enzyme initiation. A 50-fold stock plate was made with compounds serially diluted 1:5 in a 50% DMSO/50% dH2O solution. A 1 μL addition of the stock to the assay wells gave final compound concentrations ranging from 10 μM −0.128 nM in 1% DMSO. The data were expressed as percent inhibition: % inhibition=100−((Signal with inhibitor-background)/(Signal without inhibitor−background))*100.
On the technique in general: Time-resolved FRET reads energy transfer from a long-lived donor to a nearby acceptor.

In patent publication US8829185B2 (Bayer HealthCare LLC, priority 2005, dated 2014) one finds IC50 data, which are given here for 19 compounds.

Each structure is given as a SMILES string.

T1 sequence (P11362 22-822): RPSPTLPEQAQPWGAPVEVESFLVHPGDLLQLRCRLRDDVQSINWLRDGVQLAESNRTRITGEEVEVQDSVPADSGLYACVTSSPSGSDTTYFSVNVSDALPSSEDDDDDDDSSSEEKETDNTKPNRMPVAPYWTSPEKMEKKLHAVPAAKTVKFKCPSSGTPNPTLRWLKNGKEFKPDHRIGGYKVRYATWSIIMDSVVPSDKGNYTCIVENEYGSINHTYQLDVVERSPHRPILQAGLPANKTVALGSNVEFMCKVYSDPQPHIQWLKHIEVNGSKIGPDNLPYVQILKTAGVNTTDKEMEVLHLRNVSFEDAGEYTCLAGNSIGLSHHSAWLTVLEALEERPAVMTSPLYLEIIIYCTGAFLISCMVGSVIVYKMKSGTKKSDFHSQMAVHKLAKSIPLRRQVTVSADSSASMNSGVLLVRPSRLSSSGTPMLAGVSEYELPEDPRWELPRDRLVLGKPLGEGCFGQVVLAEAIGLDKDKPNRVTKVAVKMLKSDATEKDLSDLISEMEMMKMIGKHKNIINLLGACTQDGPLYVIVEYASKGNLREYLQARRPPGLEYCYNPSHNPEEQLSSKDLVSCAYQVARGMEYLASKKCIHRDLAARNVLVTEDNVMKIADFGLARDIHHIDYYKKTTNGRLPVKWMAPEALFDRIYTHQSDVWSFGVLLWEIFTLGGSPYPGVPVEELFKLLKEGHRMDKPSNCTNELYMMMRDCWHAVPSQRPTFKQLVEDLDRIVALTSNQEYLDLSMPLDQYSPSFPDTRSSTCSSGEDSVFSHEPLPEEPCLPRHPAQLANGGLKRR

As usually defined, the IC50 is the concentration that inhibits the measured activity by half. Consider `CCOC(=O)c1c(-c2ccc(NC(=O)Nc3cc(C(F)(F)F)ccn3)cc2)c2c(N)ncnn2c1-c1cccc(F)c1` [Example 1, Ethyl 4-amino-7-(3-fluorophenyl)-5-{4-[({[4-(trifluoromethyl)pyridin-2-yl]amino}carbonyl)amino]phenyl}-pyrrolo[2,1-f][1,2,4]triazine-6-carboxylate], for which, for the setting “bounds given in nM”, the IC50 is 10 to 100 nM.

The compound `CCOC(=O)c1c(-c2ccc(NC(=O)Nc3cc(C(F)(F)F)ccn3)cc2)c2c(N)ncnn2c1-c1ccc(OC)cc1` [Example 4, ethyl 4-amino-7-(4-methoxyphenyl)-5-{4-[({[4-(trifluoromethyl)pyridin-2-yl]amino}carbonyl)amino]-phenyl}pyrrolo[2,1-f][1,2,4]triazine-6-carboxylate] displayed an IC50 (bounds given in nM) of 10 to 100 nM.

The compound `N#Cc1c(C(=O)NCC(F)(F)F)c(-c2ccc(NC(=O)Nc3cc(C(F)(F)F)ccc3F)cc2)c2c(N)ncnn12` [Example 5, 4-amino-7-cyano-5-4-[([2-fluoro-5-(trifluoromethyl)phenyl]aminocarbonyl)amino]phenyl-N-(2,2,2-trifluoroethyl)-pyrrolo[2,1-f][1,2,4]triazine-6-carboxamide] registered an IC50 (bounds given in nM) of 10 to 100 nM.

Consider `CCOC(=O)c1c(-c2ccc(NC(=O)Nc3cc(C(F)(F)F)ccn3)cc2)c2c(N)ncnn2c1C#N` [Example 6, ethyl 4-amino-7-cyano-5-{4-[({[4-(trifluoromethyl)pyridin-2-yl]amino}carbonyl)amino]phenyl}pyrrolo[2,1-f][1,2,4]triazine-6-carboxylate], for which the IC50 is over 100 nM (bounds given in nM) and under 1000 nM (upper bound in μM).

Consider `N#Cc1c(C(=O)O)c(-c2ccc(NC(=O)Nc3cc(C(F)(F)F)ccn3)cc2)c2c(N)ncnn12` [Example 8, 4-amino-7-cyano-5-{4-[({[4-(trifluoromethyl)pyridin-2-yl]amino}carbonyl)amino]phenyl}pyrrolo[2,1-f][1,2,4]triazine-6-carboxylic acid], for which the IC50 runs as follows: (bounds given in nM) over 100 nM; (upper bound in μM) under 1000 nM.

For the compound `COCc1c(-c2ccc(NC(=O)Nc3cc(C(F)(F)F)ccc3F)cc2)c2c(N)ncnn2c1C#N` [Example 11, N-4-[4-amino-7-cyano-6-(methoxy-methyl)pyrrolo[2,1-f][1,2,4]triazin-5-yl]phenyl-N′-[2-fluoro-5-(trifluoromethyl)-phenyl]urea], the half-maximal inhibitory concentration (IC50) by setting is: (bounds given in nM) over 100 nM; (upper bound in μM) under 1000 nM.

For `COCc1c(-c2ccc(NC(=O)Nc3cc(C(F)(F)F)ccc3F)cc2)c2c(N)ncnn2c1CN1CCCC1` [Example 14, N-{4-[4-amino-6-(methoxymethyl)-7-(pyrrolidin-1-ylmethyl)pyrrolo[2,1-f][1,2,4]triazin-5-yl]phenyl}-N′-[2-fluoro-5-(trifluoromethyl)phenyl]urea], the IC50 (bounds given in nM) fell in the range of 10 to 100 nM.

As to `COCCNCc1c(COC)c(-c2ccc(NC(=O)Nc3cc(C(F)(F)F)ccc3F)cc2)c2c(N)ncnn12` [Example 15, N-{4-[4-amino-7-{[(2-methoxyethyl)amino]methyl}-6-(methoxymethyl)pyrrolo[2,1-f][1,2,4]triazin-5-yl]phenyl}-N′-[2-fluoro-5-(trifluoromethyl)phenyl]urea], the IC50 (bounds given in nM) was 10 to 100 nM.

In the case of `COCc1c(-c2ccc(NC(=O)Nc3cc(C(F)(F)F)ccc3F)cc2)c2c(N)ncnn2c1CNC1CC1` [Example 16, N-{4-[4-amino-7-[(cyclopropylamino)methyl]-6-(methoxymethyl)pyrrolo[2,1-f][1,2,4]triazin-5-yl]phenyl}-N′-[2-fluoro-5-(trifluoromethyl)phenyl]urea], the IC50 (bounds given in nM) fell in the range of 10 to 100 nM.

With `COCc1c(-c2ccc(NC(=O)Nc3cc(C(F)(F)F)ccc3F)cc2)c2c(N)ncnn2c1CN1CCNC(=O)C1` [Example 19, N-(4-{4-amino-6-(methoxymethyl)-7-[(3-oxopiperazin-1-yl)methyl]pyrrolo[2,1-f][1,2,4]triazin-5-yl}phenyl)-N′-[2-fluoro-5-(trifluoromethyl)phenyl]urea], the IC50 (bounds given in nM) was under 10 nM.

`COCc1c(-c2ccc(NC(=O)Nc3cc(C(F)(F)F)ccc3F)cc2)c2c(N)ncnn2c1CN1CCN(C(C)=O)CC1` [Example 21, N-{4-[7-[(4-acetylpiperazin-1-yl)methyl]-4-amino-6-(methoxymethyl)pyrrolo[2,1-f][1,2,4]triazin-5-yl]phenyl}-N′-[2-fluoro-5-(trifluoromethyl)phenyl]urea] showed an IC50 (bounds given in nM) of 10 to 100 nM.

For the compound `COCc1c(-c2ccc(NC(=O)Nc3cc(C(F)(F)F)ccc3F)cc2)c2c(N)ncnn2c1COC` [Example 24, N-{4-[4-amino-6,7-bis(methoxymethyl)pyrrolo[2,1-f]-[1,2,4]triazin-5-yl]phenyl}-N′-[2-fluoro-5-(trifluoromethyl)phenyl]urea], for the setting “bounds given in nM”, the IC50 lay in the range of 10 to 100 nM.

For `Nc1ncnn2c(CN3CCOCC3)c(-c3cnco3)c(-c3ccc(NC(=O)Nc4cc(C(F)(F)F)ccc4F)cc3)c12` [Example 26, N-4-[4-amino-7-(morpholin-4-ylmethyl)-6-(1,3-oxazol-5-yl)pyrrolo[2,1-f][1,2,4]triazin-5-yl]phenyl-N′-[2-fluoro-5-(trifluoromethyl)phenyl]urea], the IC50 (bounds given in nM) is under 10 nM.

`Nc1ncnn2c(CN3CCOCC3)c(-c3cnco3)c(-c3ccc(NC(=O)Nc4cc(C(F)(F)F)ccn4)cc3)c12` [Example 27, N-4-[4-amino-7-(morpholin-4-ylmethyl)-6-(1,3-oxazol-5-yl)pyrrolo[2,1-f][1,2,4]triazin-5-yl]phenyl-N′-[4-(trifluoromethyl)pyridin-2-yl]urea]: the IC50 (bounds given in nM) was under 10 nM.

For the compound `Nc1ncnn2c(CN3CCOCC3)c(-c3cnco3)c(-c3ccc(NC(=O)Nc4cccc(OC(F)(F)F)c4)cc3)c12` [Example 28, N-4-[4-amino-7-(morpholin-4-ylmethyl)-6-(1,3-oxazol-5-yl)pyrrolo[2,1-f][1,2,4]triazin-5-yl]phenyl-N′-[3-(trifluoromethoxy)-phenyl]urea], the 50% inhibitory concentration (IC50) (bounds given in nM) was under 10 nM.

As to `Nc1ncnn2c(CN3CCOCC3)c(-c3cnco3)c(-c3ccc(NC(=O)Nc4cc(F)cc(C(F)(F)F)c4)cc3)c12` [Example 29, N-4-[4-amino-7-(morpholin-4-ylmethyl)-6-(1,3-oxazol-5-yl)pyrrolo[2,1-f][1,2,4]triazin-5-yl]phenyl-N′-[3-fluoro-5-(trifluoromethyl)phenyl]urea], the concentration for half-maximal inhibition (IC50) (bounds given in nM) was under 10 nM.

For the setting “bounds given in nM”, `CN1CCN(Cc2c(-c3cnco3)c(-c3ccc(NC(=O)Nc4cc(C(F)(F)F)ccc4F)cc3)c3c(N)ncnn23)CC1` [Example 31, N-4-[4-amino-7-[(4-methylpiperazin-1-yl)methyl]-6-(1,3-oxazol-5-yl)pyrrolo[2,1-f][1,2,4]triazin-5-yl]phenyl-N′-[2-fluoro-5-(trifluoromethyl)phenyl]urea] returned an IC50 of under 10 nM.

Compound `CC(=O)N1CCN(Cc2c(-c3cnco3)c(-c3ccc(NC(=O)Nc4cc(C(F)(F)F)ccc4F)cc3)c3c(N)ncnn23)CC1` [Example 32, N-4-[7-[(4-acetylpiperazin-1-yl)methyl]-4-amino-6-(1,3-oxazol-5-yl)pyrrolo[2,1-f][1,2,4]triazin-5-yl]phenyl-N′-[2-fluoro-5-(trifluoromethyl)phenyl]urea] showed an IC50 (bounds given in nM) of under 10 nM.

Under “bounds given in nM”, `COCc1c(-c2ccc(NC(=O)Nc3cc(C(F)(F)F)ccn3)cc2)c2c(N)ncnn2c1CN1CCOCC1` [Example 35, N-4-[4-amino-6-(methoxymethyl)-7-(morpholin-4-ylmethyl)pyrrolo[2,1-f][1,2,4]triazin-5-yl]phenyl-N′-[4-(trifluoromethyl)pyridin-2-yl]urea] yielded a 50% inhibitory concentration (IC50) of 10 to 100 nM.
